According to US4426390A, “Novel β-lactam compounds, process for producing thereof, and use thereof as medicines” (Sanraku-Ocean Co., Ltd., priority 1980, dated 1984):
Values after ≈ are worked out from the molar mass of the structure shown.

Legend:
Format in all cases: cell-based
[1] = test system: Citrobacter Freundii GN346; assay: Synergistic effect on MIC, microdilution transfer plate technique
[2] = test system: Proteus vulgaris GN76; assay: as above
[3] = test system: Alcaligenes Faecolis A1; assay: MIC by agar dilution method; conditions: Alcaligenes Faecolis A1; agar dilution, 37° C., 18 hours; read-out: MIC
Description: (§1) The MIC is measured by an agar dilution method based on the standard method of the Japanese Society of Chemotherapy (Japanese Society of Chemotherapy: The Revised Method of Determination of MIC Values, Chemotherapy 22, 1126-1128, […]). Specifically, the antibiotic is serially diluted with a 1/50 M phosphate buffer at a pH of 7.3 to prepare a twofold dilution series. One milliliter of each dilution and 9 ml of an agar medium (Heart Infusion Agar; a product of Difco Laboratories) are mixed and allowed to solidify in a Petri dish having a diameter of 9 cm. One loopful of the stock culture of the test microbe is inoculated in trypto-soy buillon (a product of Eiken Kagaku Co., Ltd.) and incubated at 37° C. for 18 hours. The resulting culture broth is diluted to a concentration of about 10^6 cells/ml with physiological saline and inoculated on the agar plate by means of a microplanter.

[4] = test system: Bacillus subtillis ATCC 6633; assay: MIC by agar dilution method; conditions: Bacillus, ATCC6633, 18 h
Description: as §1

[5] = test system: Citrobacter Freundii GN346; assay: MIC by agar dilution method; conditions: 37° C., 18 hours
Description: as §1

[6] = test system: Comamonas terrigena B996; assay: MIC by agar dilution method; conditions: 37° C., 18 hours
Description: as §1

[7] = test system: E. coli RGN823; assay: MIC by agar dilution method; conditions: Escherichia coli, 37° C., 18 hours
Description: as §1

[8] = test system: Ent. cloacae 45; assay: MIC by agar dilution method; conditions: Enterobacter cloacae, 37° C., 18 hours
Description: as §1

[9] = test system: Ent. sp. E8; assay: MIC by agar dilution method; conditions: Ent. sp. E8; agar dilution, 37° C., 18 hours; read-out: MIC
Description: as §1

[10] = test system: Enterobacter aerogenes E19; assay: MIC by agar dilution method; conditions: Klebsiella aerogenes, 37° C., 18 hours
Description: as §1

[11] = test system: Escherichia coli K-12; assay: MIC by agar dilution method; conditions: K12; Escherichia coli K-12; agar dilution, 37° C., 18 hours; read-out: MIC
Description: as §1

[12] = test system: Klebsiella pneumoniae K13; assay: MIC by agar dilution method; conditions: 37° C., 18 hours
Description: as §1

[13] = test system: P. rettgeri P7; assay: MIC by agar dilution method; conditions: Providencia rettgeri; P. rettgeri P7; agar dilution, 37° C., 18 hours; read-out: MIC
Description: as §1

[14] = test system: P. vulgaris GN76; assay: MIC by agar dilution method; conditions: Proteus vulgaris, 37° C., 18 hours
Description: as §1

[15] = test system: Proteus mirabilis P6; assay: MIC by agar dilution method; conditions: Proteus mirabilis P6; agar dilution, 37° C., 18 hours; read-out: MIC
Description: as §1

[16] = test system: Providencia sp. P8; assay: MIC by agar dilution method; conditions: Providencia sp. P8; agar dilution, 37° C., 18 hours; read-out: MIC
Description: as §1

[17] = test system: Ps. aeruginosa NCTC10490; assay: MIC by agar dilution method; conditions: Pseudomonas aeruginosa, 37° C., 18 hours
Description: as §1

[18] = test system: Pseudomonas aenginosa IFO3445; assay: MIC by agar dilution method; conditions: 37° C., 18 hours
Description: as §1

[19] = test system: S. aureus Russell; assay: MIC by agar dilution method; conditions: Staphylococcus aureus; S. aureus Russell; agar dilution, 37° C., 18 hours; read-out: MIC
Description: as §1

[20] = test system: S. aureus Smith; assay: MIC by agar dilution method; conditions: Staphylococcus aureus, 37° C., 18 hours
Description: as §1

[21] = test system: S. epidermidis; assay: MIC by agar dilution method; conditions: Staphylococcus epidermidis, 37° C., 18 hours
Description: as §1

[22] = test system: Sarcina lutea S19; assay: MIC by agar dilution method; conditions: Micrococcus luteus, 37° C., 18 hours
Description: as §1

[23] = test system: Ser. marcesceus T55; assay: MIC by agar dilution method; conditions: 37° C., 18 hours
Description: as §1

[24] = test system: Serratia marcesceus S18; assay: MIC by agar dilution method; conditions: 37° C., 18 hours
Description: as §1

[25] = test system: Staphylococcus aureus 209P; assay: MIC by agar dilution method; conditions: 37° C., 18 hours
Description: as §1

[26] = test system: Citrobacter Freundii GN346; assay: Disc assay of synergy, inhibition zones; conditions: disc OA-6129B2, PS-5 100 μg/ml, CER, PCG 1000 μg/ml
Description: (§2) (B) The presence or absence of synergy is visually checked by the size difference in inhibitory zones observed when the test drug is disc-assayedon an agar plate of a detector microbe and on an agar plate of the detector containing cephaloridine or benzylpenicillin, respectively.
(§3) One loopful of the stock culture of a test organism is inoculated in heat infusion broth (5 ml/tube), and grown at 37° C. for 18 hours. The culture broth is diluted to a final concentration of about 10^5 cells/ml in nutrient agar with or without benzyl penicillin or cephaloridine, and plated in a Petri dish with a diameter of 9 cm, as shown below.
(§4) Using the above-prepared agar plates, antibiotic PS-5 (100 μg/ml), antibiotic OA-6129B2 (5,6-trans OA-6129B) (100 μg/ml), benzylpenicillin (1000 μg/ml) and cephaloridine (1000 μg/ml) are subjected to disc assay.

[27] = test system: Enterobacter cloacac 45; assay: Disc assay of synergy, inhibition zones; conditions: disc OA-6129B2, PS-5 100 μg/ml, CER, PCG 1000 μg/ml
Description: as §2, §3, §4

[28] = test system: Proteus vulgaris GN76; assay: Disc assay of synergy, inhibition zones; conditions: disc OA-6129B2, PS-5 100 μg/ml, CER, PCG 1000 μg/ml
Description: as §2, §3, §4

[29] = test system: Serratia marccscens T55; assay: Disc assay of synergy, inhibition zones; conditions: disc OA-6129B2, PS-5 100 μg/ml, CER, PCG 1000 μg/ml
Description: as §2, §3, §4

[30] = plate: + PCG, reduced to 5 μg/ml (final concentration)

What does the source list for CC1(C)S[C@@H]2[C@H](NC(=O)[C@H](N)c3ccccc3)C(=O)N2[C@H]1C(=O)O [ABPC, Aminobenzylpenicillin]?
MIC of ABPC in combination ([1]; with OA-6129A 6.25 μg/ml): 313 µg/mL; MIC of ABPC in combination ([1]; with OA-6129A 25 μg/ml): < 5 µg/mL; MIC of ABPC in combination ([1]; with OA-6129A 50 μg/ml): < 5 µg/mL; MIC of ABPC in combination ([1]; with OA-6129A […]): 625 µg/mL; MIC of ABPC in combination ([2]; with OA-6129A 1.56 μg/ml): 3.3 µg/mL; MIC of ABPC in combination ([2]; with OA-6129A 6.25 μg/ml): 39 µg/mL; MIC of ABPC in combination ([2]; with OA-6129A 25 μg/ml): 10 µg/mL; MIC of ABPC in combination ([2]; with OA-6129A 50 μg/ml): < 5 µg/mL; MIC of ABPC in combination ([2]; with OA-6129A […]): 156 µg/mL

For CC(O)[C@H]1C(=O)N2C(C(=O)O)=C(SCCNC(=O)CCNC(=O)C(O)C(C)(C)CO)C[C@H]12 (relative stereo) [OA-6129B2], which MIC [3] is on record?
Its MIC is 6.25 µg/mL (≈ 13.2 µM).

What about the MIC [4] of the same molecule?
Its MIC is 1.56 µg/mL (≈ 3.29 µM).

And the MIC [5]?
Its MIC is 25 µg/mL (≈ 52.8 µM).

What about the MIC [6] of the same molecule?
Its MIC is 0.39 µg/mL (≈ 0.824 µM).

What about the MIC [7] of the same molecule?
Its MIC is 12.5 µg/mL (≈ 26.4 µM).

What about the MIC [8] of the same molecule?
Its MIC is 50 µg/mL (≈ 106 µM).

What about the MIC [9] of the same molecule?
Its MIC is 25 µg/mL (≈ 52.8 µM).

What about the MIC [10] of the same molecule?
The MIC was 25 µg/mL (≈ 52.8 µM).

What about the MIC [11] of the same molecule?
The MIC was 12.5 µg/mL (≈ 26.4 µM).

And the MIC [12]?
The MIC was 12.5 µg/mL (≈ 26.4 µM).

What about the MIC [13] of the same molecule?
The MIC was 25 µg/mL (≈ 52.8 µM).

And the MIC [14]?
The MIC was 50 µg/mL (≈ 106 µM).

What about the MIC [15] of the same molecule?
The MIC was 50 µg/mL (≈ 106 µM).

What about the MIC [16] of the same molecule?
The MIC was 6.25 µg/mL (≈ 13.2 µM).

And the MIC [17]?
The MIC was greater than 100 µg/mL.

What about the MIC [18] of the same molecule?
The MIC was greater than 100 µg/mL.

And the MIC [19]?
Its MIC is 12.5 µg/mL (≈ 26.4 µM).

What about the MIC [20] of the same molecule?
The MIC was 12.5 µg/mL (≈ 26.4 µM).

And the MIC [21]?
Its MIC is 12.5 µg/mL (≈ 26.4 µM).

What about the MIC [22] of the same molecule?
Its MIC is 6.25 µg/mL (≈ 13.2 µM).

What about the MIC [23] of the same molecule?
Its MIC is 50 µg/mL (≈ 106 µM).

And the MIC [24]?
Its MIC is 25 µg/mL (≈ 52.8 µM).

And the MIC [25]?
The MIC was 6.25 µg/mL (≈ 13.2 µM).

What about the zone of inhibition at 100 µg/mL ([26]; Citrobacter freundii, GN346, plate: None, read-out: diameter of inhibition zones) of the same molecule?
The zone of inhibition at 100 µg/mL was 12 mm.

What about the “diameter of inhibition zones” value ([26]; plate: + CER) of the same molecule?
Its value is 16.0 mm.

And the “diameter of inhibition zones” value ([26]; plate: + PCG)?
Its value is 13.0 mm.

And the zone of inhibition at 100 µg/mL ([27]; Enterobacter, 45, plate: None, read-out: diameter of inhibition zones)?
The zone of inhibition at 100 µg/mL was 10 mm.

What about the “diameter of inhibition zones” value ([27]; plate: + CER) of the same molecule?
The value was 15.0 mm.

And the “diameter of inhibition zones” value ([27]; plate: + PCG)?
Its value is 12.0 mm.

And the zone of inhibition at 100 µg/mL ([28]; Proteus vulgaris, GN76, plate: None, read-out: diameter of inhibition zones)?
The zone of inhibition at 100 µg/mL was 0 mm.

What about the “diameter of inhibition zones” value ([28]; plate: + CER) of the same molecule?
The value was 20.0 mm.

What about the “diameter of inhibition zones” value ([28]; plate: + PCG) of the same molecule?
The value was 19.5 mm.

And the zone of inhibition at 100 µg/mL ([29]; Serratia, T55, plate: None, read-out: diameter of inhibition zones)?
The zone of inhibition at 100 µg/mL was 12 mm.

What about the “diameter of inhibition zones” value ([29]; plate: + CER) of the same molecule?
Its value is 22.0 mm.

What about the “diameter of inhibition zones” value [29, 30] of the same molecule?
The value was 12.0 mm.

How did the “diameter of inhibition zones” value ([26]; plate: + CER) turn out when CC1(C)S[C@@H]2[C@H](NC(=O)Cc3ccccc3)C(=O)N2[C@H]1C(=O)O [PCG, benzylpenicillin] was run?
The value was 0 mm.

And the “diameter of inhibition zones” value ([26]; plate: + PCG)?
Its value is 0 mm.

What about the “diameter of inhibition zones” value ([26]; plate: None) of the same molecule?
Its value is 0 mm.

And the “diameter of inhibition zones” value ([27]; plate: + CER)?
Its value is 0 mm.

And the “diameter of inhibition zones” value ([27]; plate: + PCG)?
The value was 0 mm.

And the “diameter of inhibition zones” value ([27]; plate: None)?
Its value is 0 mm.

What about the “diameter of inhibition zones” value ([28]; plate: + CER) of the same molecule?
The value was 0 mm.

What about the “diameter of inhibition zones” value ([28]; plate: + PCG) of the same molecule?
The value was 0 mm.

And the “diameter of inhibition zones” value ([28]; plate: None)?
The value was 0 mm.

And the “diameter of inhibition zones” value ([29]; plate: + CER)?
The value was 0 mm.

And the “diameter of inhibition zones” value [29, 30]?
The value was “tr”.

What about the “diameter of inhibition zones” value ([29]; plate: None) of the same molecule?
Its value is “tr”.
